Data on 34 molecules can be found in BindingDB's records for doi:10.7270/Q2DF6PMF (Nmmlsc, 2007).

As usually defined, the IC50 is the concentration at which inhibition is half-maximal. Read a low IC50 as higher potency. The term Ki denotes a dissociation constant, usually derived from enzyme kinetics or from competition with a known ligand. The low end stands for a stronger hold on the target, the high end for a looser hold on the target.

SMILES strings stand for the structures. Counter-ions that a name gives are not always drawn.

This assay has as its target T1, N-formyl peptide receptor 2 (Homo sapiens, UniProt P25090).
T1 sequence (P25090 whole entry): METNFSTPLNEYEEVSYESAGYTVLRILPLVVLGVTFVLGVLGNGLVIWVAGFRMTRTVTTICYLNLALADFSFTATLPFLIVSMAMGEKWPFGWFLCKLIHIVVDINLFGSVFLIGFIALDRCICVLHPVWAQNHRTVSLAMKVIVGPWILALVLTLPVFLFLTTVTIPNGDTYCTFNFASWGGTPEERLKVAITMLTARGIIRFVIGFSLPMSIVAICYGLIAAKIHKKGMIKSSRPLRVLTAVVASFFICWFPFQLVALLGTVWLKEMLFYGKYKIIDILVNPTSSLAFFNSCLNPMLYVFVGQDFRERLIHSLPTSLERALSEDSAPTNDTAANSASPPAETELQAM
Briefly: concentration-dependent FPRL1 ligand displacement – cell-based, FPR counter-screen, fluorescent ligand, dose response (AID 520). (In general: Counterscreens check selectivity or assay interference.)
For the molecule `COc1ccc2ccccc2c1C1CC(=O)N2CN(C3CCCCC3)CSC2=C1C#N` (stereo not given) [3-cyclohexyl-8-(2-methoxynaphthalen-1-yl)-6-oxo-2,4,7,8-tetrahydropyrido[2,1-b][1,3,5]thiadiazine-9-carbonitrile], the IC50 was above 66.7 µM.

In turn, `C=CCOc1cccc(C2C(C(=O)c3ccco3)C(=O)C(=O)N2CCN2CCOCC2)c1` (stereo not given) [3-(furan-2-carbonyl)-4-hydroxy-1-(2-morpholin-4-ylethyl)-2-(3-prop-2-enoxyphenyl)-2H-pyrrol-5-one] gave a concentration for half-maximal inhibition (IC50) above 66.7 µM and a Ki above 40.3 µM.

`COc1ccc2c(=O)c(N3C(=O)c4ccccc4C3=O)c(C)oc2c1` [2-(4-keto-7-methoxy-2-methyl-chromen-3-yl)isoindoline-1,3-quinone] had an IC50 above 66.7 µM.

In the case of `CC(=O)OCCNc1cc(N2CCN(C)CC2)c2noc3c2c1C(=O)c1ccccc1-3` [MLS000118373], the concentration for half-maximal inhibition (IC50) was determined as 6.9 µM.

`O=C1C(=O)N(c2ncccn2)C(c2ccc(Cl)cc2)C1C(=O)c1ccco1` (stereo not given) [2-(4-chlorophenyl)-3-(furan-2-carbonyl)-4-hydroxy-1-pyrimidin-2-yl-2H-pyrrol-5-one] registered an IC50 above 66.7 µM and a Ki above 40.3 µM.

`CCOC(=O)c1c(C)[nH]c(C=Nc2ccccc2)c1O` [(5Z)-5-(anilinomethylidene)-2-methyl-4-oxo-1H-pyrrole-3-carboxylic acid ethyl ester] yielded an IC50 above 66.7 µM.

The molecule `CCOC(=O)Cc1cc(=O)n2[nH]c(C)c(-c3ccc(Cl)cc3)c2n1` [ethyl 2-[3-(4-chlorophenyl)-2-methyl-7-oxo-1H-pyrazolo[1,5-a]pyrimidin-5-yl]acetate] yielded an IC50 above 66.7 µM.

Take `COc1ccc2cnn(-c3ccccc3)c(=O)c2c1OC` [7,8-dimethoxy-2-phenyl-1(2H)-phthalazinone]: the IC50 is above 66.7 µM.

Take `CC1(C)S[C@@H]2[C@H](NC(=O)C(C(=O)O)c3ccccc3)C(=O)N2[C@H]1C(=O)O` (stereo not given in full) [CARBENICILLIN DISODIUM SALT]: the IC50 was above 66.7 µM.

With `Cc1cccc(C2CC(c3ccc(Cl)cc3)Nc3nc(N)nn32)c1` (stereo not given) [5-(4-chlorophenyl)-7-(3-methylphenyl)-1,5,6,7-tetrahydro-[1,2,4]triazolo[1,5-a]pyrimidin-2-amine], the IC50 was above 66.7 µM.

`CN1C(=O)/C(=C2\SC(=S)N(C(CCC(=O)O)C(=O)O)C2=O)c2ccccc21` (stereo not given) [SMR000054993] came in with an IC50 above 66.7 µM.

Molecule `O=C(Cn1c(=O)oc2ccccc21)N1CCN(c2ccccc2)CC1` [3-[2-keto-2-(4-phenylpiperazino)ethyl]-1,3-benzoxazol-2-one] gave a 50% inhibitory concentration (IC50) above 66.7 µM.

With `O=C1C(=O)N(c2ncccn2)C(c2cccc(Cl)c2)C1C(=O)c1ccco1` (stereo not given) [2-(3-chlorophenyl)-3-(furan-2-carbonyl)-4-hydroxy-1-pyrimidin-2-yl-2H-pyrrol-5-one], the 50% inhibitory concentration (IC50) was above 66.7 µM and the inhibitory constant (Ki) was above 40.3 µM.

In turn, `CC1Oc2ccccc2N(Cc2ccccc2Cl)C1=O` (stereo not given) [4-(2-Chloro-benzyl)-2-methyl-4H-benzo[1,4]oxazin-3-one] came in with an IC50 above 66.7 µM.

In turn, `O=C1C(=O)N(CCN2CCOCC2)C(c2ccccc2)C1C(=O)c1cccs1` (stereo not given) [1-(2-morpholin-4-ylethyl)-4-oxidanyl-2-phenyl-3-thiophen-2-ylcarbonyl-2H-pyrrol-5-one] showed an IC50 above 66.7 µM and a Ki above 40.3 µM.

With `Cc1ccc(C2C(C(=O)c3cnn(-c4ccccc4)c3C)C(=O)C(=O)N2CCN2CCOCC2)o1` (stereo not given) [(4Z)-4-[hydroxy-(5-methyl-1-phenyl-4-pyrazolyl)methylidene]-5-(5-methyl-2-furanyl)-1-[2-(4-morpholinyl)ethyl]pyrrolidine-2,3-dione], the IC50 is above 66.7 µM and the Ki is above 40.3 µM.

For the molecule `Cc1ccc(C2C(C(=O)c3ccc(Br)cc3)C(=O)C(=O)N2Cc2ccco2)o1` (stereo not given) [(4Z)-4-[(4-bromophenyl)-hydroxy-methylene]-1-(2-furfuryl)-5-(5-methyl-2-furyl)pyrrolidine-2,3-quinone], the IC50 was above 66.7 µM and the Ki was above 40.3 µM.

`CCCC(=O)Nc1c2c(nn1-c1ccc(OC)cc1)C[S+]([O-])C2` (stereo not given) [MLS000086302] showed an IC50 above 66.7 µM.

In turn, `O=C(Nc1ccc(Nc2ccccc2)cc1)c1ccc(Br)o1` [5-bromanyl-N-(4-phenylazanylphenyl)furan-2-carboxamide] had an IC50 above 66.7 µM.

In the case of `O=c1c(C23CC4CC(CC(C4)C2)C3)c(O)n(-c2ccccc2)n1-c1ccccc1` [MLS000526352], the IC50 was above 66.7 µM and the Ki was above 40.3 µM.

The molecule `CCCc1nc2ccccc2c2nc(N)nn12` [SMR000073509] yielded an IC50 above 66.7 µM.

`CCC(=O)Nc1c(C#N)c2nc3ccccc3nc2n1-c1ccccc1C` [SMR000039884] came in with an IC50 above 66.7 µM.

In the case of `COc1cccc(C2C(C(=O)c3cc4ccccc4o3)C(=O)C(=O)N2c2cc(C)on2)c1OC` (stereo not given) [3-(1-benzofuran-2-carbonyl)-2-(2,3-dimethoxyphenyl)-4-hydroxy-1-(5-methyl-1,2-oxazol-3-yl)-2H-pyrrol-5-one], the half-inhibitory concentration (IC50) was above 66.7 µM and the Ki is above 40.3 µM.

On to `CCC(SC1=Nc2ccccc2C2=NC(CC(C)C)C(=O)N12)C(=O)Nc1ccc2c(c1)OCO2` (stereo not given) [N-(1,3-benzodioxol-5-yl)-2-[[2-(2-methylpropyl)-3-oxo-2H-imidazo[1,2-c]quinazolin-5-yl]sulfanyl]butanamide], for which the IC50 was above 66.7 µM.

Consider `Nc1ccc(Nc2ccccc2)cc1`, for which the IC50 was above 66.7 µM.

The molecule `CC1=NC(C)=C(C#N)C(c2ccc3ncccc3c2)C1C#N` (stereo not given) returned an IC50 above 66.7 µM and a Ki above 40.3 µM.

Take `COc1ccc(CC(=O)Nc2ccc(-c3nnc(-c4ccc(C)cc4)o3)cc2)cc1` [2-(4-methoxyphenyl)-N-[4-[5-(4-methylphenyl)-1,3,4-oxadiazol-2-yl]phenyl]acetamide]: the IC50 is above 66.7 µM.

In the case of `COc1ccc(-c2cc(C(F)(F)F)nc(NC3CCCC3)n2)cc1OC` [MLS000086438], the IC50 was above 66.7 µM.

Consider `Clc1ccc(C2CC(c3cccs3)n3ncnc3N2)cc1Cl` (stereo not given) [5-(3,4-dichlorophenyl)-7-(2-thienyl)-1,5,6,7-tetrahydro-[1,2,4]triazolo[1,5-a]pyrimidine], for which the IC50 is above 66.7 µM.

`Cc1c(CNCc2cccs2)c(C(=O)O)c(C)n1Cc1ccccc1` [1-benzyl-2,5-dimethyl-4-[(2-thenylamino)methyl]pyrrole-3-carboxylic acid] came in with an IC50 above 66.7 µM.

For `COc1ccc(-c2nc(-c3ccc(Br)o3)no2)cc1OC` [3-(5-bromanylfuran-2-yl)-5-(3,4-dimethoxyphenyl)-1,2,4-oxadiazole], the IC50 is above 66.7 µM.

In turn, `COc1ccc(OC)c(C2C(C(=O)c3ccco3)C(=O)C(=O)N2CCCN2CCOCC2)c1` (stereo not given) [2-(2,5-dimethoxyphenyl)-3-(furan-2-carbonyl)-4-hydroxy-1-(3-morpholin-4-ylpropyl)-2H-pyrrol-5-one] displayed an IC50 above 66.7 µM and a Ki above 40.3 µM.

For the molecule `O=C(NCc1cccnc1)C1c2ccccc2C(=O)N1C1CCCCCC1` (stereo not given) [2-cycloheptyl-3-keto-N-(3-pyridylmethyl)isoindoline-1-carboxamide], the half-inhibitory concentration (IC50) was above 66.7 µM.

Consider `COc1cccc2cc(C(=O)C3C(=O)C(=O)N(Cc4ccco4)C3c3cccnc3)oc12` (stereo not given) [1-(2-furanylmethyl)-4-hydroxy-3-[(7-methoxy-2-benzofuranyl)-oxomethyl]-2-(3-pyridinyl)-2H-pyrrol-5-one], for which the IC50 is above 66.7 µM and the Ki was above 40.3 µM.
